What was measured:
[1] = system: mice with DSS-induced colitis; experiment: Disease activity index (DAI) in DSS-induced acute colitis model; assay type: in vivo, BALB/c mice
Experimental: For use in this experiment, female BALB/c mice (7 weeks old) were purchased from Saeronbio Inc. (Gyeonggi-do, Korea) and acclimatized for 7 days under SPF conditions at Kyonggi University (temperature 23±2° C., humidity 50±5%, 12-hour light/dark cycle). All experiments adhered to the guidelines of the university's Animal Ethics Committee. An acute colitis model was induced using dextran sodium sulfate (DSS). Mice were divided into seven groups of seven mice each. 1) A normal control group received purified water orally for 28 days. 2) A colitis group received purified water for 28 days and 5% DSS solution freely from days 21 to 28 to induce colitis. […] On the 29th day, each mouse was sacrificed, and the length of the colon and small intestine and the weight of the spleen were measured and evaluated. […] During the DSS treatment, colitis severity was determined using the disease activity index (DAI), which measures weight loss, stool consistency, rectal bleeding, and perianal blood presence according to the criteria in Table 3. After monitoring with the naked eye every two days for eight days, the scores were summed and calculated. […]

TNF-α = TNF-α level in colon tissue of DSS-induced colitis mice; assay type: in vivo, BALB/c mice
Experimental: (§1) Mice were divided into seven groups of seven mice each. 1) A normal control group received purified water orally for 28 days. 2) A colitis group received purified water for 28 days and 5% DSS solution freely from days 21 to 28 to induce colitis. The galacto-oligosaccharide of the present disclosure was administered at a dose of 3) 400 mg/kg and 4) 800 mg/kg to two groups of colitis-induced mice, respectively, for 28 days. In addition, to colitis-induced mice, the galacto-oligosaccharides from 5) company A and 6) company B were each administered at a dose of 800 mg/kg for 28 days while 7) the positive control group was administered 100 mg/kg of the anti-inflammatory agent 5-ASA (5-aminosalicylic acid) for 28 days. On the 29th day, each mouse was sacrificed, and the length of the colon and small intestine and the weight of the spleen were measured and evaluated. After measurement, the colon tissue was cut into 1 cm lengths, and the cecum was excised and placed into separate Ep. tubes for storage in a deep freezer for future experiments. […]
(§2) First, colon tissue samples were suspended in PBS containing a protease inhibitor (Roche Diagnostics Corp., Indianapolis, IN, USA) and homogenized uniformly using a TaKaRa BioMasher (Takara Bio Inc., Shiga, Japan). […] Protein concentration was quantified using a bicinchoninic acid kit (Thermo Scientific, Waltham, MA, USA).

myeloperoxidase (MPO) = experiment: MPO level in colon tissue of DSS-induced colitis mice; assay type: in vivo, BALB/c mice; details: 100 mg/kg for 28 days (positive control)
Experimental: as §1, §2

[2] = system: mice with DSS-induced colitis; experiment: Colon length in DSS-induced acute colitis model; assay type: in vivo, BALB/c mice
Experimental: as §1, with “For use in this experiment, female BALB/c mice (7 weeks old) were purchased from Saeronbio Inc. (Gyeonggi-do, Korea) and acclimatized for 7 days under SPF conditions at Kyonggi University (temperature 23±2° C., humidity 50±5%, 12-hour light/dark cycle). All experiments adhered to the guidelines of the university's Animal Ethics Committee. An acute colitis model was induced using dextran sodium sulfate (DSS). Mice” for “Mice”, “The galacto-oligosaccharide of the present disclosure was administered at a dose of 3) 400 mg/kg and 4) 800 mg/kg to two groups of colitis-induced mice, respectively, for 28 days.” left out, “experiments. Portions of the remaining colon tissue were fixed in a 4% formalin solution.” for “experiments.”

[3] = system: intestinal short chain fatty acids; experiment: Short chain fatty acid (SCFA) production in cecum of DSS-induced mice (GC); assay type: in vivo
Experimental: To determine the effect of administering the galacto-oligosaccharide of the present disclosure on the intestinal short chain fatty acids in DSS-induced mice, 5-ASA and the GOS of the present disclosure were administered at low (7 mg/mouse), medium (14 mg/mouse), and high (21 mg/mouse) concentrations to DSS-induced mice according to the schedule described in Example 3-1. Afterward, the cecums of the mice were collected, homogenized with a homogenizer, and suspended in 80% methanol. The samples were then centrifuged at 13,000 rpm for 10 minutes, diluted to a final concentration of 1 g/mL, and filtered through a 0.45 μm syringe filter. Quantitative analysis of SCFAs was performed by preparing each STD at different concentrations and using 2-ethylbutyric acid as the internal standard (ISTD). The standard curves were calculated based on the peak area ratios. In brief, the SCFA content was measured using gas chromatography (GC) equipped with a DB-FFAP capillary column to determine the production capacity of six SCFAs (acetic acid, propionic acid, butyric acid, valeric acid, caproic acid, and heptanoic acid). The GC analysis conditions were as follows: 100° C. (0.5 min), 100° C.→180° C. (8° C./min), 180° C. (1.0 min), 180° C.→200° C. (20° C./min), 200° C. (5.0 min).

[4] = system: mucin and goblet cells in the colon; experiment: Histological analysis of colon (Alcian blue-PAS staining) in DSS-induced colitis mice; assay type: in vivo, BALB/c mice; details: colon sections, FIG. 9; dose not stated
IL-6 = IL-6 level in colon tissue of DSS-induced colitis mice; assay type: in vivo, BALB/c mice
Experimental: as §1, §2

[5] = 100 mg/kg (positive control), DSS colitis mice
[6] = 100 mg/kg for 28 days (positive control), 5% DSS days 21-28
[7] = 100 mg/kg for 28 days (positive control), DSS colitis
[8] = PC, dose 100 mg/kg, DSS-induced mice

Structure (SMILES): Nc1ccc(O)c(C(=O)O)c1 [5-ASA, 5-aminosalicylic acid]
- Colitis amelioration effect (DAI), in words [1, 5]: did not show any colitis amelioration effect
- Disease Activity Index of 8 day (Score) [1, 6]: 10.3 Score
- Level of TNF-α versus DSS group, in words (TNF-α; [5]): greatly reduced
- TNF-α (TNF-α; [7]): 100 pg/mg
- MPO (myeloperoxidase (MPO)): 45 pg/mg
- Inhibition of the reduction of colon length, in words [2, 5]: showed an efficacy in inhibiting the reduction of colon length
- Colon length [2, 6]: 5.2 cm
- All SCFAs except acetic acid compared to the NC treated with 5% DSS alone, in words ([3]; PC group, cecum): slight increase
- Acetic acid, share of total SCFA (value in parentheses) [3, 8]: 73.3
- Acetic acid, short chain fatty acid production in cecum [3, 8]: 8917 µM
- Butyric acid, share of total SCFA (value in parentheses) [3, 8]: 15.8
- Butyric acid, short chain fatty acid production in cecum [3, 8]: 1923 µM
- Propionic acid, share of total SCFA (value in parentheses) [3, 8]: 10.9
- Propionic acid, short chain fatty acid production in cecum [3, 8]: 1321 µM
- Total SCFA, share of total SCFA (value in parentheses) [3, 8]: 100
- Total SCFA, short chain fatty acid production in cecum [3, 8]: 12161 µM
- Amount of mucin (Alcian blue-PAS) compared to the DSS-treated group [4]: the amount of mucin recovered
- Goblet cells compared to the DSS-treated group [4]: goblet cells were observed
- Level of IL-6 versus DSS group, in words (IL-6; [5]): greatly reduced
- IL-6 (IL-6; [7]): 12 pg/mg
